Test system: Frataxin (FXN) mRNA expression
Assay: Effect of HDAC inhibitors on frataxin (FXN) mRNA expression in iPSC derived neuronal cells (qRT-PCR)
Assay type: cell-based
Conditions: iPSC derived neuronal cells differentiated 16 days, compound incubated 24 h
Protocol: Effect of HDAC Inhibitors on Frataxin (FXN) mRNA Expression
Method: mRNA quantification of compound-treated iPSC derived neuronal cells Neuronal stem cells were cultured in Neurobasal A medium (Life technologies #10888022) supplemented with N2, B27 (Life technologies #17502-048 and #17504-044), L-glutamine (Life technologies #25030081), supplemented with 20 ng/ml EGF (R&D Systems #236-EG) and 20 ng/ml bFGF (BioPioneer # HRP-0011). Neuronal differentiation was initiated by removing growth factors and culturing cells in Neurobasal A with N2 and B27. Cells were allowed to differentiate for 16 days. HDAC inhibitory compound was then added and incubate for 24 h. RNA isolation was performed using the RNeasy Plus mini kit (QIAgen #74134) using a QIAcube instrument per manufacturer's instructions. qRT-PCR was performed using qScript One-Step SYBR Green qRT-PCR Kit (Quanta Biosciences 170-8893BR) with the following conditions: 20 minutes at 50° C., 5 minutes at 95° C., and then 40 cycles of 20 seconds at 95° C., 20 seconds at 55° C., 30 seconds at 72° C. The primer sequences to detect expression of FXN were: 5′-[…]-3′ and 5′-[…]-3′.
Data for additional compounds for iPSC fold inductions and cLogP are shown in Table 4 The ranges reported for cLogP refer to the following. A<1, 1<B<2, 2<C<3, 3<D<5, E>5. NA refers to “not available.”

C[C@@H]1CN(Cc2ccc(C(=O)Nc3ccccc3N)cc2)[C@@H](C)CN1CC(C)(C)O (racemic) [Compound 478, N-(2-aminophenyl)-4-(((2S,5R)-4-(2-hydroxy-2-methylpropyl)-2,5-dimethylpiperazin-1-yl)methyl)benzamide]
Fold Induction: 2.1

From patent US20200087314A1, “HISTONE DEACETYLASE INHIBITORS” (BIOMARIN PHARMACEUTICAL INC., priority 2016, published 2020)
